Reference: ChEMBL document CHEMBL5678810

How the values were obtained:
[1] = molecular target: Dual specificity mitogen-activated protein kinase kinase 5 (Homo sapiens, UniProt Q13163); assay: Inhibition of GST-tagged MEK5 (unknown origin) expressed in baculovirus expression system incubated for 90 mins in presence of ATP by PKLight ATP Detection Reagent based analysis
[2] = molecular target: Mitogen-activated protein kinase 7 (Homo sapiens, UniProt Q13164); assay: Inhibition of GST-tagged ERK5 (unknown origin) expressed in baculovirus expression system incubated for 90 mins in presence of ATP by PKLight ATP Detection Reagent based analysis
[3] = molecular target: Ribosomal protein S6 kinase alpha-2 (Homo sapiens) (UniProt Q15349); assay: Inhibition of T7 bacteriophage fused human C-terminal RSK3 Kinase domain-2 at 10 uM by KINOMEscan analysis relative to control
[4] = molecular target: Peripheral plasma membrane protein CASK (Homo sapiens) (UniProt O14936); assay: Inhibition of T7 bacteriophage fused human CASK at 10 uM by KINOMEscan analysis relative to control
[5] = molecular target: Tyrosine-protein kinase Tec (Homo sapiens) (UniProt P42680); assay: Inhibition of T7 bacteriophage fused human TEC at 10 uM by KINOMEscan analysis relative to control
[6] = molecular target: STE20-like serine/threonine-protein kinase (Homo sapiens) (UniProt Q9H2G2); assay: Inhibition of T7 bacteriophage fused human SLK at 10 uM by KINOMEscan analysis relative to control
[7] = molecular target: T1, Dual specificity protein kinase TTK (Homo sapiens) (UniProt P33981); assay: Inhibition of T7 bacteriophage fused human TTK at 10 uM by KINOMEscan analysis relative to control
T1 sequence (whole entry): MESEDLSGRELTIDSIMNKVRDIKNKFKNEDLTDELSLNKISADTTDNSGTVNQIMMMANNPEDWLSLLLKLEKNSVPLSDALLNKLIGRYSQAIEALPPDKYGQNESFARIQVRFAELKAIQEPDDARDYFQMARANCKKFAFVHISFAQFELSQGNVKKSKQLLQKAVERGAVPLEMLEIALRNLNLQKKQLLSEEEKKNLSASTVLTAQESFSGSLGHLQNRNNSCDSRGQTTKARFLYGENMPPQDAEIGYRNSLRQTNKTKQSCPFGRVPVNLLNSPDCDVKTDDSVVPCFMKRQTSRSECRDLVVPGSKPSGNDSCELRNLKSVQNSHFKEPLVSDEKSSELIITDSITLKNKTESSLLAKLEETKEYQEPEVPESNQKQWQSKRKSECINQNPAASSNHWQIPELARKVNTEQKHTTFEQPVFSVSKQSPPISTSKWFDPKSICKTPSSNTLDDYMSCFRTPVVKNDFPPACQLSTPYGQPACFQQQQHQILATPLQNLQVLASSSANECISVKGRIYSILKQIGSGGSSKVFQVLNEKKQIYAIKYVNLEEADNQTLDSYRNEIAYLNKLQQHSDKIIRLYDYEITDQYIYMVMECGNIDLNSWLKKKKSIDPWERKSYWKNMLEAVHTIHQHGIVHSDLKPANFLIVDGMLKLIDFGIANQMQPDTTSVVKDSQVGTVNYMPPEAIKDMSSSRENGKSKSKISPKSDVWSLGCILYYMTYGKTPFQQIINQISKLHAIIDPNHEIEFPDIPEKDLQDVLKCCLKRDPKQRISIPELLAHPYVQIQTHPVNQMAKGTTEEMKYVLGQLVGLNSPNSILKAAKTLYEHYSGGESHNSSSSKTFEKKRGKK

[8] = molecular target: Ribosomal protein S6 kinase alpha-6 (Homo sapiens) (UniProt Q9UK32); assay: Inhibition of T7 bacteriophage fused human C-terminal RSK4 Kinase domain-2 at 10 uM by KINOMEscan analysis relative to control

Tyrosine-protein kinase Tec (Homo sapiens), sequence (P42680 whole entry, looked up, the tested form may be a part): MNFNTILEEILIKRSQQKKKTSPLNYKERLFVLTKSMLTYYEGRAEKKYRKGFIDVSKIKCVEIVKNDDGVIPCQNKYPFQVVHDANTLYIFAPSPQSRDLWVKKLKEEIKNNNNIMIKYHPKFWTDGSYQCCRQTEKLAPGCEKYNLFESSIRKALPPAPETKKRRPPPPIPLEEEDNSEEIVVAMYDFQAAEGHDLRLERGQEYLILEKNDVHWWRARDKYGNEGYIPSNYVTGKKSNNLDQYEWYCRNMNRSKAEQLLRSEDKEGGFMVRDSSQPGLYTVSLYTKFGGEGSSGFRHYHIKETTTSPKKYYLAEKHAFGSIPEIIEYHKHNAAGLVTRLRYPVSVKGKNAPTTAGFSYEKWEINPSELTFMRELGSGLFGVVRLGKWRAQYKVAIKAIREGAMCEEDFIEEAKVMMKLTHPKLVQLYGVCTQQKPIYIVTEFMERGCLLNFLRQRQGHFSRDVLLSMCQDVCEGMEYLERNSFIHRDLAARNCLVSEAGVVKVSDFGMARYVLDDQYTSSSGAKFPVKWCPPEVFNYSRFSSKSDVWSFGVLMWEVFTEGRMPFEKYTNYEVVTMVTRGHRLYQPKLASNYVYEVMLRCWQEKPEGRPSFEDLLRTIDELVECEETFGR
Ribosomal protein S6 kinase alpha-2 (Homo sapiens), sequence (Q15349 whole entry, the tested form may be a part): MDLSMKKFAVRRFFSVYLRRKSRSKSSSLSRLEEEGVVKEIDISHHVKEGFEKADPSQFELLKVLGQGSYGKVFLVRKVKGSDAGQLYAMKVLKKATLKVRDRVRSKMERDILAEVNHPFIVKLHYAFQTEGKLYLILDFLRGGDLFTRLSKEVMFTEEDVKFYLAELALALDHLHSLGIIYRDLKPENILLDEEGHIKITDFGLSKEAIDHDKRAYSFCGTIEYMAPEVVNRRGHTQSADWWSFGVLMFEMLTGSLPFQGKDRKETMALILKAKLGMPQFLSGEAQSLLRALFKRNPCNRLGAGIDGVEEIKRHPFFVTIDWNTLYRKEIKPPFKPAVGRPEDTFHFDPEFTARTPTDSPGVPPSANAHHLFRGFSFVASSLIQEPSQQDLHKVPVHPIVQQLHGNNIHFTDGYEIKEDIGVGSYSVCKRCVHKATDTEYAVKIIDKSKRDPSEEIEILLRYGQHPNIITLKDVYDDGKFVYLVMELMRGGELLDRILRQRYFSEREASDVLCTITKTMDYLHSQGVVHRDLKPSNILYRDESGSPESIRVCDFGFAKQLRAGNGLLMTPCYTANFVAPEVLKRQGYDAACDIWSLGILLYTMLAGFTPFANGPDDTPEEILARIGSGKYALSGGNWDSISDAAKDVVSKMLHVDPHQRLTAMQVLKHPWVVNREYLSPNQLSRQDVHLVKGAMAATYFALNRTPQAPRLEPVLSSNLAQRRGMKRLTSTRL
STE20-like serine/threonine-protein kinase (Homo sapiens), sequence (Q9H2G2 whole entry, looked up, the tested form may be a part): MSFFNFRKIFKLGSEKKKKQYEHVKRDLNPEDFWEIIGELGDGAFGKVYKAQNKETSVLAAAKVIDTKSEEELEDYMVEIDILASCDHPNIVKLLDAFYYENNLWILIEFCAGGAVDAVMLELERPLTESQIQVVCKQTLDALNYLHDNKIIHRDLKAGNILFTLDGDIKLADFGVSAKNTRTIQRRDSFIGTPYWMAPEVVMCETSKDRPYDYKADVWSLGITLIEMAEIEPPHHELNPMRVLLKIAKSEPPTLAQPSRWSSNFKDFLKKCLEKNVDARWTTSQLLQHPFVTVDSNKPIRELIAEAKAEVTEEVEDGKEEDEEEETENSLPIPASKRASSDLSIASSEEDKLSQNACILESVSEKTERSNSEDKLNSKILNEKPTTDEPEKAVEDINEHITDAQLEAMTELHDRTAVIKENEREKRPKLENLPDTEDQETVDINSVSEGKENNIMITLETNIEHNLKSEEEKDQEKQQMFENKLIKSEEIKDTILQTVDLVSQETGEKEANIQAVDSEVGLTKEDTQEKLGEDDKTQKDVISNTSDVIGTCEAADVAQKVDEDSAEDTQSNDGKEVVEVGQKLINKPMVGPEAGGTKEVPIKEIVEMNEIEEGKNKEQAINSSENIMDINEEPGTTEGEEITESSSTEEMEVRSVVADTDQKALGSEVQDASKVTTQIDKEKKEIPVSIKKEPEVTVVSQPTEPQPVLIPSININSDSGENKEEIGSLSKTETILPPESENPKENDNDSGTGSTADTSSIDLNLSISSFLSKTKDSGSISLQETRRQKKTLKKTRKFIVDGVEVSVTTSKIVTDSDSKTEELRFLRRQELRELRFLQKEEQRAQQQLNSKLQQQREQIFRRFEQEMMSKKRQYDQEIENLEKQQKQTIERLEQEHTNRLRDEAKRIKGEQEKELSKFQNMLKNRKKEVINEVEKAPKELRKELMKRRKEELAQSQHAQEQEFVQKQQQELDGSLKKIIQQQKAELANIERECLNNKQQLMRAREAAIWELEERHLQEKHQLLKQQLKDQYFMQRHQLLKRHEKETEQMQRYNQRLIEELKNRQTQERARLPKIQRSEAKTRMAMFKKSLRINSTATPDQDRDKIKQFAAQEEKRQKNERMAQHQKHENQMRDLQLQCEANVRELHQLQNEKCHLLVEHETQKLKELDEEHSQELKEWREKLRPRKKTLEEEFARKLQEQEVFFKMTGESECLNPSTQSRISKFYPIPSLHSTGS
Mitogen-activated protein kinase 7, sequence (Q13164 whole entry, the tested form may be a part): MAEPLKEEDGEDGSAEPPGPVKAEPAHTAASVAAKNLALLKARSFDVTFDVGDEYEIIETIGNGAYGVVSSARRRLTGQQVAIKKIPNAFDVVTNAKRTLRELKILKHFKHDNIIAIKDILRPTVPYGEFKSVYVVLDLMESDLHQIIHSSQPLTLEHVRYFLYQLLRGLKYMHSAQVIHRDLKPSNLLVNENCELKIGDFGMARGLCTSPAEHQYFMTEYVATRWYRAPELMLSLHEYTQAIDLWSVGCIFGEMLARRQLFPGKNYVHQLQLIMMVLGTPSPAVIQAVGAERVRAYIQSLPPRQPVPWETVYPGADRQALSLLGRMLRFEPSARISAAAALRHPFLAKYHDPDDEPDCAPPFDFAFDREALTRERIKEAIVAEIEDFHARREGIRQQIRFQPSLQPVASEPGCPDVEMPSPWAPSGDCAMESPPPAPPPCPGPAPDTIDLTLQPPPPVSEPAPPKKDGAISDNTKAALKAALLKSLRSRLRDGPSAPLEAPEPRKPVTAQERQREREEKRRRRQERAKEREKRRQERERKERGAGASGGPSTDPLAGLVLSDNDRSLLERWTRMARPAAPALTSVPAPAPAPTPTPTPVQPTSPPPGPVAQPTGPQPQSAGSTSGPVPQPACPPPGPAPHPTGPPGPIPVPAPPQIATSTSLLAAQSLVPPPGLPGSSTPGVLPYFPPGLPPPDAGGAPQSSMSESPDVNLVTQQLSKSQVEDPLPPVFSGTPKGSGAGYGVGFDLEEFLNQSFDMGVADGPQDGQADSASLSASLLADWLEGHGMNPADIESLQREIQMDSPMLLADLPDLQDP
Peripheral plasma membrane protein CASK (Homo sapiens), sequence (O14936 whole entry, looked up, the tested form may be a part): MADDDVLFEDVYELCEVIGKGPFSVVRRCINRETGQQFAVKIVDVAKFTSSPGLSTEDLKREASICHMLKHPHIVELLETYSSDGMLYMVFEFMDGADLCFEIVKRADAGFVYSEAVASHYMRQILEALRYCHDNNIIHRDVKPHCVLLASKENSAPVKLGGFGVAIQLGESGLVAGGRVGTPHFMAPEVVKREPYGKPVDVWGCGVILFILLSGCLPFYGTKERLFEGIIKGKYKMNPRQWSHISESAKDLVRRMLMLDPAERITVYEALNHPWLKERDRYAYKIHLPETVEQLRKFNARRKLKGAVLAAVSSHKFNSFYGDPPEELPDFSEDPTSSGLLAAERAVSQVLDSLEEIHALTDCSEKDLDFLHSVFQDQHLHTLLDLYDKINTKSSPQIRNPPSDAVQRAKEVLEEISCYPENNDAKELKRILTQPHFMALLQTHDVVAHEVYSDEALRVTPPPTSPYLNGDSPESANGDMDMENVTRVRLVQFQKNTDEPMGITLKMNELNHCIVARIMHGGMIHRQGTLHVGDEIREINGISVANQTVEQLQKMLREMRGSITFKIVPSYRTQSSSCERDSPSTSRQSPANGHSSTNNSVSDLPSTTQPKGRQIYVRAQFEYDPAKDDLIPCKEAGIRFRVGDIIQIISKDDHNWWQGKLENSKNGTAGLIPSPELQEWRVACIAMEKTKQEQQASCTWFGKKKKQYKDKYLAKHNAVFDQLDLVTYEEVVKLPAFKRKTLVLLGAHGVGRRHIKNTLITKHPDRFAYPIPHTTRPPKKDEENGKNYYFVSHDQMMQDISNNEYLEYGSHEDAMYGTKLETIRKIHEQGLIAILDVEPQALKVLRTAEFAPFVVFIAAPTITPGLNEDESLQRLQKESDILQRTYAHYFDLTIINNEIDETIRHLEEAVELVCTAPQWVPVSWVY
Dual specificity mitogen-activated protein kinase kinase 5, sequence (Q13163 whole entry): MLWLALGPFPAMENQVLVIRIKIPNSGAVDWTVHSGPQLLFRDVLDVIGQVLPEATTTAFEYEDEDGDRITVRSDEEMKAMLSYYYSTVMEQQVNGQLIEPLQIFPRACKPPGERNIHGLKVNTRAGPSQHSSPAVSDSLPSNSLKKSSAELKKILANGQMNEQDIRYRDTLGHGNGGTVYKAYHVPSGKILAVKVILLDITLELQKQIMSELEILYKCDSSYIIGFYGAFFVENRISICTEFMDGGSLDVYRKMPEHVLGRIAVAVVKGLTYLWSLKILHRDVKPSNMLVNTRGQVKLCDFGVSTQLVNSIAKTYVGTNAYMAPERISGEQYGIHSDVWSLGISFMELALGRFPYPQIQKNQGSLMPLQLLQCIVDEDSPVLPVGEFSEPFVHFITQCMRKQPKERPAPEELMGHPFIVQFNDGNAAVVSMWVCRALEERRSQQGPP

## CN(C)Cc1cccc(N/C(=C2\C(=O)Nc3cc(C(N)=O)ccc32)c2ccccc2)c1
[1]
  IC50: 0.0043 µM
[2]
  IC50: 0.81 µM

## COc1cc(C(=O)N2CCC(N3CCN(C)CC3)CC2)ccc1Nc1ncc2c(n1)N1CCc3cccc(c31)C(=O)N2C
[3]
  inhibition: 13%
[4]
  inhibition: 100%
[5]
  inhibition: 100%
[6]
  inhibition: 49%
[7]
  inhibition: 46%
[8]
  inhibition: 5.2%
